According to article PMC12583694, “RNF114 and RNF166 exemplify reader-writer E3 ligases that extend K11 polyubiquitin onto sites of MARUbylation” (The EMBO Journal, 2025):

How the values were obtained:
[1] = molecular target: T1, AF1521 macrodomain (GST-AF1521) (Archaeoglobus fulgidus, UniProt O28751); test: fluorescence polarization; conditions: labelled compound; pH 7.4, 150 mM NaCl, 0.1 mg/mL BSA, 1 mM TCEP, 22 °C; one-site total binding fit
T1 construct: gene AF_1521; GST-AF1521 plasmid (gift from M. Nielsen), purified as previously reported
T1 sequence (O28751 1-192): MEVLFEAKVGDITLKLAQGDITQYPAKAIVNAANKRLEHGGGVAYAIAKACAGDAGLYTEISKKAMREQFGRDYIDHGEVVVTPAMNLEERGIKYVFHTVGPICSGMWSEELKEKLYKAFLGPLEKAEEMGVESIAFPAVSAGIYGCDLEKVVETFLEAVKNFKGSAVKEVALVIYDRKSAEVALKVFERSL

RNF114 = molecular target: T2, RNF114 (Homo sapiens, UniProt Q9Y508); test: fluorescence polarization; assay type: binding; conditions: labelled compound; unreliable (estimated, saturation not reached); pH 7.4, 150 mM NaCl, 0.1 mg/mL BSA, 1 mM TCEP, 22 °C
T2 construct: full-length RNF114, N-terminal His-3C fusion (pOPIN-B), expressed in E. coli Rosetta; cobalt resin and gel filtration
T2 sequence (Q9Y508 whole entry, the tested form may be a part): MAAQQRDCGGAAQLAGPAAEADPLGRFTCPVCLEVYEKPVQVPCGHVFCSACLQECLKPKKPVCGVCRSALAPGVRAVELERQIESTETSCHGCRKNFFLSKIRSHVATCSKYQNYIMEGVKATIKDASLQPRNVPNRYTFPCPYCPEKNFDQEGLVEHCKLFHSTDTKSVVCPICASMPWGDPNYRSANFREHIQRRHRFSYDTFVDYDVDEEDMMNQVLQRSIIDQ

## ADPr^T
[1]
  Kd: 1200 nM
RNF114
  Kd: ~ 40 µM
